Measurements published in patent US4950605A, “FR-900493 substance, a process for its production and a pharmaceutical composition containing the same” (Fujisawa Pharmaceutical Co., Ltd., priority 1988, dated 1990).
Values after ≈ are worked out from the molar mass of the structure shown.

Key:
[1] = system: Staphylococcus aureus 1601-47; experiment: Protective efficacy in experimental infections in mice; format: in vivo, ddY mouse (infected with Staphylococcus aureus 1601-47); conditions: 30 mg/kg subcutaneous, one hour after intraperitoneal infection with 3×10^6 cells; male ddY mice 5 weeks; observed 2 days
Protocol: Protective efficacy in experimental infections in mice: The in vivo activity of the FR-900493 substance against experimental infections due to Staphylococcus aureus 1601-47 was examined. One hour after the intraperitoneal injection of 3×10^6 cell of the test strain to each ddY mouse (male, 5 weeks age), the solution of the FR-900493 substance was administered subcutaneously.

Acute toxicity in mice = format: in vivo; conditions: intravenous; ddY mice, 4 weeks age, male
Protocol: The median lethal dose (LD50) of the FR-900493 substance in mice (ddY, 4 weeks age, male) by intravenous administration was >500 mg/kg.

[2] = system: Staphylococcus aureus 209P JC-1; experiment: Antimicrobial activity, MIC on 1/2 Mueller-Hinton agar; format: cell-based; conditions: 37° C., 24 hours
Protocol: (§1) Antimicrobial activities: (a) Test Method One loopful of an overnight culture (10^8 cells/ml) of each test bacteria in bouillon was streaked on 1/2 Mueller-Hinton agar containing the graded concentration of the FR-900493 substance and the minimal inbibitory concentration (MIC) was determined after incubation at 37° C. for 24 hours.

[3] = system: Staphylococcus aureus 1601-6; experiment: as above; format: cell-based; conditions: 37° C., 24 hours
Protocol: as §1

[4] = system: Bacillus subtilis ATCC-6633; experiment: as above; format: cell-based; conditions: 37° C., 24 hours
Protocol: as §1

In the case of CN(CCCN)[C@H](C(=O)O)[C@H](O[C@@H]1O[C@H](CN)[C@@H](O)[C@H]1O)[C@H]1O[C@@H](n2ccc(=O)[nH]c2=O)[C@H](O)[C@@H]1O [FR-900493 substance], the Survival [1] is reported as 100%, the “median lethal dose (LD50)” value (Acute toxicity in mice) is reported as over 500 mg/kg and the “minimal inhibitory concentration (MIC)” value [2] is reported as 3.13 µg/mL (≈ 6.02 µM). For the same molecule, the “minimal inhibitory concentration (MIC)” value [3] was 6.25 µg/mL (≈ 12 µM) and the “minimal inhibitory concentration (MIC)” value [4] was 3.13 µg/mL (≈ 6.02 µM).
